pEC50: −log10 of the molar value.
Assays:
HCV GT1a replicon = test: HCV replicon assay (Huh-7 cells stably transfected with HCV GT1a replicon; luciferase or NEO gene qPCR readout); type: cell-based; conditions: Hepatitis C virus, HCV 1a genotype replicon, 72 hours
Description: (§1) HCV Replicon System was utilized as a screening model in the present disclosure to evaluate the antivirus effects of the compounds disclosed herein against HCV. HCV Replicon assay was first described in Science, 1999, 285 (5424), 110-3. […] To determine the potential anti-HCV effects of the test compounds, luciferase assay and antibiotic Neomycin resistance gene were tested according to the method described in Science. 1999 Jul. 2; 285 (5424), 110-3 and J. Virol. 2003 March; 77 (5), 3007-19.
(§2) In a word, the compounds disclosed herein were tested by using human hepatic carcinoma cell line Huh-7 which is transfected stably with HCV GT1a, GT1b or GT2a replicon respectively, and resistant cells of Y93H, L31F, P32L or I302V and wild-type cells HCV 1b. HCV Replicon System disclosed herein contains G418 resistance gene NEO and Luciferase Reporter Gene, and the level of HCV replication in host cells is detected and characterized by the expression level of the NEO gene or Luciferase Reporter Gene, so the effects of the compounds herein inhibit HCV replication can be evaluated in this system. In this article, a real-time quantitative polymerase chain reaction (qPCR) method was used to detect NEO gene expression level, and chemiluminescence method was used to test Luciferase Reporter Gene expression level.
(§3) 1. Test Method for Measuring EC50 of the Compounds Based on Luciferase Assay.
(§4) The Huh-7 cells transfected with HCV replicons system were seeded into 96-well plates (8,000 cells in 125 μL/well) respectively; each test compound was diluted to desired concentration using 5-fold serial dilutions protocol, 10 doses in duplicate, and added to wells with POD™ 810 Plate Assembler. The plates were incubated in a CO2 incubator for 72 hours; after that, 40 μL of Luciferase assay substrate (Promega Bright-Glo) was added to each well, and detected by a chemiluminescence detection system (Topcount Microplate Scintillation and Luminescence Counter) 5 minutes later; the EC50 (half-maximal effective concentration, concentration for 50% of maximal effect) values of test compounds were analyzed by GraphPad Prism software. In this paper, experiments were repeated twice and set the wells without compounds as negative control.
(§5) 2. Test Method for Measuring EC50 of the Compounds by Detecting Antibiotic G418 Resistance Gene NEO Gene.
(§6) The Huh-7 cells transfected with HCV replicons system were seeded into 96-well plates (8,000 cells in 125 μL/well) respectively; each test compound was diluted to desired concentration using 5-fold serial dilutions protocol, 10 doses in duplicate, and added to each well with POD™ 810 Plate Assembler; the cells were incubated in a CO2 incubator for 72 hours; and detected the expression level of the NEO gene expression with real-time quantitative PCR later; the EC50 (half-maximal effective concentration, concentration for 50% of maximal effect) values of test compounds were analyzed by GraphPad Prism software, respectively. In this paper, experiments were repeated twice and set the wells without compounds as negative control.

HCV GT1b replicon = test: HCV replicon assay (Huh-7 cells stably transfected with HCV GT1b replicon; luciferase or NEO gene qPCR readout); type: cell-based; conditions: Hepatitis C virus, HCV 1b genotype replicon, 72 hours
Description: as §1, §2, §3, §4, §5, §6

Compound | pEC50 (HCV GT1a replicon) | pEC50 (HCV GT1b replicon)
CC[C@H](C)[C@H](NC(=O)OC)C(=O)N1CCC[C@H]1C1=Nc2ccc(-c3ccc(-c4ccc5nc([C@@H]6CCCN6C(=O)[C@@H](NC(=O)OC)C(C)C)[nH]c5c4)c4c3CC3CCCC43)cc2S(=O)(=O)N1 (stereo partly shown) [Example 31] | 10.08 | 10.46
COC(=O)N[C@H](C(=O)N1CC(C)=C[C@H]1c1ncc(-c2ccc(-c3ccc(-c4cnc([C@@H]5C=C(C)CN5C(=O)[C@@H](NC(=O)OC)C(C)C)[nH]4)c4c3C3CCC3C4)cc2)[nH]1)C(C)C (stereo partly shown) [Example 21] | 10.17 | 10.82
COC(=O)N[C@H](C(=O)N1CCC[C@H]1C1=Nc2cc(-c3ccc(C#Cc4cnc([C@@H]5CCCN5C(=O)[C@@H](NC(=O)OC)C5CCCCC5)[nH]4)c4c3CC3C(=O)CC43)ccc2C(C)(C)N1)C1CCCCC1 (stereo partly shown) [Example 29] | 8.12 | 9.51
COC(=O)N[C@H](C(=O)N1CC2(C[C@H]1c1ncc(-c3ccc(-c4ccc(-c5ccc6nc([C@@H]7CCCN7C(=O)[C@@H](NC(=O)OC)C(C)C)[nH]c6c5)c5c4C4CCC4C5)cc3)[nH]1)OCCO2)C(C)C (stereo partly shown) [Example 20] | 9.37 | 10.44
COC(=O)N[C@H](C(=O)N1C[C@@H](C)C[C@H]1c1ncc(-c2ccc(-c3ccc(-c4ccc5nc([C@@H]6C[C@H](C)CN6C(=O)[C@@H](NC(=O)OC)C(C)C)[nH]c5c4)c4c3C3CCC3C4)cc2)[nH]1)C(C)C (stereo partly shown) [Example 14] | 11.52 | 12.00
COC(=O)N[C@H](C(=O)N1CCC[C@H]1c1cc(=O)c2cc(-c3ccc(-c4ccc(-c5cnc([C@@H]6CCCN6C(=O)[C@@H](NC(=O)OC)c6ccccc6)[nH]5)cc4)c4c3C3(C)CCC3C4)ccc2[nH]1)c1ccccc1 (stereo partly shown) [Example 30] | 9.68 | 10.04
COC(=O)N[C@H](C(=O)N1CCC[C@H]1c1ncc(-c2ccc(-c3ccc(-c4ccc5nc([C@@H]6CC7CC7N6C(=O)[C@@H](NC(=O)OC)C(C)C)[nH]c5c4)c4c3C3CCC3C4)cc2)[nH]1)C(C)C (stereo partly shown) [Example 11] | 10.29 | 10.48
COC(=O)N[C@H](C(=O)N1CCC[C@H]1c1ncc(-c2ccc(-c3sc(-c4ccc5nc([C@@H]6CCCN6C(=O)[C@@H](NC(=O)OC)C(C)C)[nH]c5c4)c4c3C3CCC3C4)cc2)[nH]1)C(C)C (stereo partly shown) [Example 26] | 9.08 | 10.32
